Converted amounts (≈) assume the structure as drawn.
What was measured:
Type in all cases: cell-based
DU-145 = assay: Cell cycle measurement by DNA content flow cytometry, DU-145; conditions: protocol of Example 3
Procedure: (§1) The cells were washed with phosphate buffered saline (PBS) and fixed in ice-cold 70% ethanol. Aliquots of fixed cells were rehydrated in PBS and stained with 1.0 microgram/milliliter DAPI (4,6-diamidino-2-phenylindole from Eastman Kodak, Rochester, NY), and dissolved in 10 millimolar piperazine-N,N-bis-2-ethane-sulfonic acid buffer (Calbiochem, La Jolla, CA) containing 100 millimolar NaCl, 2mM MgCl2 and 0.1% Triton X-100 (Sigma) at pH 6.8 as previously described by Halicka et al. (H. D. Halicka, B. Ardelt, G. Juan, A. Mittelman, S. Chen, F. Traganos and Z. Darzynkiewicz, "Apoptosis and Cell Cycle Effects Induced by Extracts of the Chinese Herbal Preparation of PC SPES", International J. of Oncology (1997), 11: 437-448).
(§2) The cellular DNA content was measured with an ELITE ESP flow cytometer (Coulter Inc., F1.) using UV laser illumination. The multicycle program was used to deconvolute the DNA frequency histograms to estimate the frequency of cells in different phases of the cell cycle.
A prolongation in the G2M phase leads to the suppression of DU-145 cell proliferation.

hERα = molecular target: T1, hERα (Homo sapiens, UniProt P03372); assay: ERα-Luc reporter gene activation in transfected HEK 293 cells; conditions: 0 to 9 µg/ml, 20 hours
T1 construct: expressed in transfected cells; host or cells: HEK 293 cells (ATCC CRL-1573)
From the text: (§3) HEK 293 cells (ATCC CRL-1573) were transfected with an expression vector for hERα and hERβ respectively, and an ERE-LUC reporter gene (plus a TK-LUC reporter for normalization) following the protocol of Yoon et al ("Differential activation of wild-type and variant forms of estrogen receptor α by synthetic and natural estrogenic compounds using a promoter containing three estrogen-responsive elements", J. Steroid Biochem. & Molecular Biology (2000), 28: pages 25-32).

LNCaP cells = assay: Cell cycle measurement by DNA content flow cytometry, LNCaP; conditions: two concentrations, 24-48 hours exposure
Procedure: as §1, §2

hERβ = molecular target: T2, hERβ (Homo sapiens, UniProt Q92731); assay: ERβ-Luc reporter gene activation in transfected HEK 293 cells; conditions: for capability in activating ERβ-Luc reporter gene than the ERα-Luc reporter gene: ERβ-Luc versus ERα-Luc, 1200 min; for ERβ-Luc reporter gene activation: HEK 293 cells, 0 to 9 µg/ml, 20 hours
T2 construct: expressed in transfected cells; host or cells: HEK 293 cells (ATCC CRL-1573)
From the text: as §3

[1] = tested on: MCF-7 breast cancer cells; assay: MTT cell viability assay, MCF-7; conditions: Homo sapiens, MCF7; concentration giving 50% inhibition of cancer cell growth, 72 hours, linear interpolation; read-out: ED50 values from MTT Assay, MCF7
From the text: (§4) Cancer cell lines: LNCaP, DU-145, and MCF-7 cells were purchased from the American Type Culture Collection. PTX 10, a taxol-resistant ovarian cancer cell line, was obtained from the Brander Cancer Research Laboratory, New York Medical College. Cells were maintained in RPMI 1640 culture media supplemented with 10% heat-inactivated FBS, 5 millimolar glutamine, 50 units/milliliter of penicillin G, and 50 […] of streptomycin. The cells were routinely seeded at 1X 10^5 cells/milliliter in T-75 flasks, allowed to attach overnight, then treated with the herbal extract. At different times, cells were harvested by trypsinization.
(§5) The MTT assay (MTT = 3-(4,5-dimethylthiazol-2-yl)-2,5-diphenyl tetrazolium bromide) was used to count viable cells. The assay reagents were purchased from Boehringer Mannheim (Roche Diagnosis Corp, Indianapolis, Indiana). […] The protocol for the cell , viability assay was provided by the manufacturer and modified in our laboratory as described below.
(§6) Prostate or breast (reference) cancer cells were seeded in 96 well microtiter plates at a concentration of 3x10^3 cells per well (MCF-7; breast cancer cells) or 6x10^3 cells per well (LNCaP or DU145; prostate cancer cells), in a volume of 100 microliters of cell culture medium. After 24 hours, 20 microliter aliquots of the compounds at various concentrations were added to the attached cells. […]

[2] = tested on: PTX 10, a taxol resistant ovarian cancer cell line; assay: MTT cell viability assay, PTX 10; conditions: PTX10, 72 h, read-out: ED50, PTX 10 (taxol resistant Ovarian cancer cell)
[3] = tested on: DU-145 (androgen-independent) prostate cancer cells; assay: MTT cell viability assay, DU-145; conditions: Homo sapiens, DU-145, 72 h, read-out: ED50 values from MTT Assay, DU145
From the text: as §4, §5, §6

[4] = tested on: LNCaP (androgen-dependent) prostate cancer cells; assay: MTT cell viability assay, LNCaP; conditions: Homo sapiens, 72 h, read-out: ED50 values from MTT Assay, LNCaP
From the text: as §4, §5, §6

T2 sequence (Q92731 whole entry): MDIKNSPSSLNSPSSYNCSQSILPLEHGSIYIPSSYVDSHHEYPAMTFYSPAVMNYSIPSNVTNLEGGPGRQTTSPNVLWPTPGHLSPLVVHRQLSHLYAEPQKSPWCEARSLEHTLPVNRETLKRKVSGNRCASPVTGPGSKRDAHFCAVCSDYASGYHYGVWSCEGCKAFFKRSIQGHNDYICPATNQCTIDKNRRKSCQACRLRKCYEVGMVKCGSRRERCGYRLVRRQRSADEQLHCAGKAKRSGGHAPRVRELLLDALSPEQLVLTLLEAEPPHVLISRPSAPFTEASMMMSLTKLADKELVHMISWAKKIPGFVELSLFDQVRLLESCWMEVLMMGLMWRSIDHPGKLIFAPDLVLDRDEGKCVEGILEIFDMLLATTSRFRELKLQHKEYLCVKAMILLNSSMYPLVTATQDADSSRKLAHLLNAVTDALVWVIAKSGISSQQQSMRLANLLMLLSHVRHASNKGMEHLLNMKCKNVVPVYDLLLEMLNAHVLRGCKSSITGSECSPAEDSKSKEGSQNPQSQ
T1 sequence (P03372 whole entry): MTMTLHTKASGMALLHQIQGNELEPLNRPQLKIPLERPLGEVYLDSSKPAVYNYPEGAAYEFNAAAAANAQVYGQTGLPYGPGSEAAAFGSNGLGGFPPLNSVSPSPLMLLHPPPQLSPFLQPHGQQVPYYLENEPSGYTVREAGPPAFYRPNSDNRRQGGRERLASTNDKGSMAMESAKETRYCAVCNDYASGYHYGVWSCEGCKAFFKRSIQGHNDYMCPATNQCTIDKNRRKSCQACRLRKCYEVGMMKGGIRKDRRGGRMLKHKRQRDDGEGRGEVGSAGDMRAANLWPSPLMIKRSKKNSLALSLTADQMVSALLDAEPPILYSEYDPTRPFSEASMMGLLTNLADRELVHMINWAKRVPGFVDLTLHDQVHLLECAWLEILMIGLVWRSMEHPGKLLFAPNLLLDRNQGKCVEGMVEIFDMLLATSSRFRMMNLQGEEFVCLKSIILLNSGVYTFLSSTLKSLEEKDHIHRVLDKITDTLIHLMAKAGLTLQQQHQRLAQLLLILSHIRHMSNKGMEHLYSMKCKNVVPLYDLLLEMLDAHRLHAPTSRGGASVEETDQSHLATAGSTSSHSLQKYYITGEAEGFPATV

SMILES | effect on DU-145 cell cycle (DU-145) | ERα-Luc reporter gene activation (hERα) | effect on G1, S, and G2M phases of the LNCaP cell cycle (LNCaP cells) | capability in activating ERβ-Luc reporter gene than the ERα-Luc reporter gene (hERβ) | ERβ-Luc reporter gene activation (hERβ) | IC50 [1] [µg/mL] | IC50 [2] [µg/mL] | IC50 [3] [µg/mL] | IC50 [4] [µg/mL]
COc1c(O)cc(O)c2c(=O)cc(-c3ccccc3)oc12 [Wogonin, 5,7-dihydroxy-8-methoxy-flavone] | prolonged the G2M phase | dose-responsive behavior | G1 phase arrest | at least 10 times | dose-responsive behavior | – | – | – | –
O=C(/C=C/c1ccc(O)cc1)c1ccc(O)cc1O [isoliquiritigenin, 2',4,4'-trihydroxychalcone] | – | dose-responsive behavior | G2M phase arrest | at least 10 times | dose-responsive behavior | 3.25 (≈ 12.7 µM) | 3.32 (≈ 13 µM) | 7.6 (≈ 29.7 µM) | 3.51 (≈ 13.7 µM)

From patent EP1487434B1, “BOTANICAL EXTRACT COMPOSITIONS WITH ANTI-CANCER ACTIVITY COMPRISING ISOLIQUIRITIGENIN” (The Medical Research and Education Trust, priority 2002, dated 2003)
